# Experimental data published in ChEMBL document CHEMBL1201862, “PubChem BioAssay data set” (2004).
#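 Compound exposure: 48 hours, 5 concentrations, 96-well plates. The concentration for 50% growth inhibition is given as GI50.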 Activity calls are given as the source filed them. Cut-off read from the data, not from the text of the source: active = GI50 up to about 1.1 µM and inactive = higher.
# Legend:
# Assay in all cases: NCI anticancer screen, dose series, 48 h
# Hs-578T = test system: Hs-578T
# DMS-114 = test system: DMS-114
# RXF 631 = test system: RXF 631
# DMS-273 = test system: DMS-273
# M19-MEL = test system: M19-MEL
# HOP-18 = test system: HOP-18
# LXFL 529 = test system: LXFL 529
# SNB-78 = test system: SNB-78
# XF498 = test system: XF498
Compound,GI50 (Hs-578T),GI50 (M19-MEL),GI50 (SNB-78),other results
Cn1c(=O)c2c(nc3n(Cc4ccccc4)c(=O)c(Br)cn23)n(C)c1=O,> 100 µM (inactive),,,
Cc1cc(S(=O)(=O)O)c(NC(=O)C(=O)Cc2cc(=O)oc3cc(O)ccc23)cc1Cl,,> 100 µM (inactive),,GI50 (DMS-114): > 100 µM (inactive); GI50 (RXF 631): > 100 µM (inactive); GI50 (DMS-273): > 100 µM (inactive); GI50 (HOP-18): > 100 µM (inactive)
CC1(C)Oc2ccccc2[N+]([O-])=C1c1ccccc1,,> 100 µM (inactive),> 100 µM (inactive),GI50 (LXFL 529): > 100 µM (inactive); GI50 (DMS-114): > 100 µM (inactive); GI50 (RXF 631): > 100 µM (inactive); GI50 (DMS-273): > 100 µM (inactive)
N#Cc1c(O)c(/N=N/c2ccccc2F)c(=O)n2c1[nH]c1ccccc12,15.4 µM (inactive),,,
C/C(=N\N=C1/C(=O)OC(c2ccccc2)=C1C(=O)c1ccccc1)c1ccc([N+](=O)[O-])cc1,54.3 µM (inactive),,,
c1ccc2c(c1)cc1n2CC2CN=NC12 (centres undefined),,> 100 µM (inactive),> 100 µM (inactive),GI50 (LXFL 529): > 100 µM (inactive); GI50 (RXF 631): > 100 µM (inactive); GI50 (DMS-273): > 100 µM (inactive)
Cc1c(O)nc(-n2[nH]c3c(c2=O)CCCC3)[nH]c1=O,> 100 µM (inactive),,,
COc1cccc(C2CC23C(=O)NC(=O)NC3=O)c1 (centres undefined),,> 100 µM (inactive),> 100 µM (inactive),GI50 (LXFL 529): > 100 µM (inactive); GI50 (DMS-114): > 100 µM (inactive); GI50 (DMS-273): > 100 µM (inactive); GI50 (XF498): > 100 µM (inactive)
NNC(=S)N/N=C(/C(=O)Nc1ccc([N+](=O)[O-])cc1)c1nc2ccc([N+](=O)[O-])cc2nc1O,,> 100 µM (inactive),> 100 µM (inactive),GI50 (DMS-114): 77.6 µM (inactive); GI50 (XF498): > 100 µM (inactive); GI50 (HOP-18): > 100 µM (inactive)
COc1ccc(C)cc1NC(=S)N/N=C/c1ccco1,66.7 µM (inactive),,,
CC(=O)C1C(=O)C(=O)N(c2ccccc2C(C)C)C1=O (centres undefined),,> 100 µM (inactive),> 100 µM (inactive),GI50 (LXFL 529): > 100 µM (inactive); GI50 (XF498): > 100 µM (inactive); GI50 (HOP-18): > 100 µM (inactive)
Brc1ccc(/C(N=N/C(=N\Sc2ccccc2)c2ccc(Br)cc2)=N/Sc2ccccc2)cc1,> 100 µM (inactive),,,
C=C(CCCCC)CN1CCCC1C(C)=O (centres undefined),,28.9 µM (inactive),26.1 µM (inactive),GI50 (LXFL 529): 27.3 µM (inactive); GI50 (DMS-114): 15 µM (inactive); GI50 (DMS-273): 21.5 µM (inactive); GI50 (XF498): 15 µM (inactive); GI50 (HOP-18): 28.9 µM (inactive)
COc1cc(OC)cc(-n2c(N)c(-c3nc4ccccc4n3C)c3ccc([N+](=O)[O-])cc3c2=O)c1,26.4 µM (inactive),,,
N#C/N=C(/N)NCN/C(N)=N\C#N,,> 100 µM (inactive),> 100 µM (inactive),GI50 (LXFL 529): > 100 µM (inactive); GI50 (DMS-114): > 100 µM (inactive); GI50 (RXF 631): > 100 µM (inactive); GI50 (DMS-273): 58.9 µM (inactive); GI50 (HOP-18): > 100 µM (inactive)
O=C1CSC(c2cccc(Cl)c2)N1c1ccc(-c2ccc(-n3c(-c4ccccc4)nc4ccccc4c3=O)cc2)cc1 (centres undefined),> 100 µM (inactive),,,

Compound,GI50 (Hs-578T),GI50 (M19-MEL),GI50 (SNB-78),other results
CC(=O)n1nc(-c2ccccc2)n(/N=C/c2ccc([N+](=O)[O-])o2)c1=O,8.59 µM (inactive),,,
COc1nc2ncc([C@@H](OC(C)=O)[C@@H](COC(C)=O)OC(C)=O)nc2c(=O)[nH]1,> 100 µM (inactive),,,
COc1ccc2[nH]c(C(=O)N3CC(CCl)c4ccc(N)cc43)cc2c1 (centres undefined),0.335 µM (active),,,
COC(=O)c1cc(C)n(CN(Cn2nc(C(=O)OC)cc2C)c2ccccc2)n1,> 100 µM (inactive),,,
O=C(CC(c1ccccc1)C(C(=O)c1ccncc1)C(CC(=O)c1ccncc1)c1ccccc1)c1ccncc1 (centres undefined),30 µM (inactive),,,
CCCCCC(=O)OC[n+]1cccc(-c2c(COC(=O)NC(C)C)c(COC(=O)NC(C)C)c3n2CCC3)c1,69.3 µM (inactive),,,
O=C(/C=C(\O)c1cc(-c2ccccc2)n(-c2ccccc2)n1)c1ccccc1,14.7 µM (inactive),,,
Cc1csc2nc(-c3ccc([N+](=O)[O-])cc3)c(/C=N/N=C(N)N)n12,2.09 µM (inactive),,,
CO[C@@H]1[C@@H](OC2OC(C)C(OC3CC(C)(O)C(OC(=O)CC(C)C)C(C)O3)C(N(C)C)C2O)[C@@H](CC=O)C[C@@H](C)C(=O)/C=C/C2O[C@H]2C[C@@H](C)OC(=O)C[C@H]1OC(C)=O (some centres undefined),37.4 µM (inactive),,,
Cc1cccc2c(N)c3cccc(C(=O)NCC[N+](C)(C)Cc4sccc4[N+](=O)[O-])c3nc12,1.11 µM (active),,,
CCOC(=O)C1=C(OC(OCC)C([Se]c2ccccc2)C(C)C)CCC1 (centres undefined),,15.3 µM (inactive),12.8 µM (inactive),GI50 (LXFL 529): 12.2 µM (inactive); GI50 (DMS-273): 5.52 µM (inactive); GI50 (XF498): 11.6 µM (inactive); GI50 (HOP-18): 16.2 µM (inactive)
Cc1nc(Nc2ccc(Cl)cc2)sc1C(=O)Nc1cccc2c(=O)[nH][nH]c(=O)c12,,30.3 µM (inactive),> 100 µM (inactive),GI50 (LXFL 529): 13.1 µM (inactive); GI50 (DMS-114): 19.2 µM (inactive); GI50 (DMS-273): 7.24 µM (inactive)
CCOC(=O)C(Cc1cc(OC)c(CC(C(=O)OCC)C(=O)OCC)cc1OC)C(=O)OCC,> 100 µM (inactive),> 100 µM (inactive),57.9 µM (inactive),GI50 (LXFL 529): > 100 µM (inactive); GI50 (DMS-114): > 100 µM (inactive); GI50 (DMS-273): > 100 µM (inactive); GI50 (XF498): 21.6 µM (inactive)
Oc1ccc(Cn2c(-c3ccc(O)c(O)c3)nc3ccccc32)cc1O,5.79 µM (inactive),,,
Cc1nc(N)c(N2CCN(S(N)(=O)=O)CC2)c(O)n1,> 100 µM (inactive),,,
